Legend:
rats = experiment: Acute peritoneal dialysis in rats with NAG-based or glucose-based dialysis fluid; type: in vivo, rat
Experimental: Peritoneal transport kinetics as well as blood insulin and glucose levels were evaluated in rats during acute peritoneal dialysis. Peritoneal dialysis fluids tested in the studies described herein were prepared in the laboratory and sterilized by filtration. Electrolyte and buffer compositions of both solutions were identical, similar to those contained in commercially available fluids. Concentrations of the individual solutes were as follows (mmol/l): Na 132, Ca 1.75, Mg 0.75, Cl 102, lactate 35. Glucose or NAG were used as osmotic solutes, both in a concentration of 220 mmol/l. Osmolality of the glucose-based dialysis fluid was 478 mOsm/kg H20 and of the solution containing NAG 476 mOsm/kg H2O; pH of the studied fluids was 7.02 and 7.03, respectively.
Acute peritoneal dialysis was performed in male Wistar rats (b.w.270-330 g) according to the methods described previously (see ref. 10 below). For 24 hours prior to the experiments, animals were given only drinking water and no food. At the beginning of the study, under ether anesthesia, blood samples were collected from the tail vein and thereafter 20 ml of the dialysis fluid was infused via a polyvinyl catheter (1.2 gauge; Vygon, Helsingborg, Sweden); the catheter was instantly removed after infusion. Thereafter the rats were transferred to individual cages, signs of anesthesia disappeared within 5 minutes. Dialysis fluid dwelled in the peritoneal cavity for 1 hour, 3 hours or 6 hours. 12 animals were studied at each time interval: 6 in the NAG group and 6 in the glucose group. During the dialysis animals were conscious with free access to drinking water but no food. At the end of the dwell time rats were again anesthetized with ether, blood samples were collected from the heart and then animals were sacrificed by exsanguination from heart. Afterwards the peritoneal cavity was opened and the dialysate was collected with a pipette. Dialysate volume was measured by weight. Blood and dialysate samples were centrifuged (1500 rpm for 10 minutes) and serum or dialysate supernatant were stored at −20° C. for further analysis. In dialysate samples drained after 6 hrs dwell cell count was determined in a Neubauer chamber.
Serum and dialysate samples were analyzed for creatinine (enzymatic test, Analco, Warsaw) and total protein were analyzed using Lowry method (11). Sodium concentration in the unused dialysis fluid and dialysate was measured with flame photometry (Eppendorf, Germany). Glucose concentration in serum was measured with an enzymatic test (Sigma Chemical, St.Louis, Mo., U.S.A.). Insulin concentration in serum was measured with ELISA kit (Mercodia, Uppsala, Sweden). Hyaluronan concentration in the dialysate samples was measured with ELISA (Chugai, Japan). Sodium sieving and permeability coefficient for creatinine were calculated for exchanges with 1 hour dwell. Results are presented as mean±SD. Statistical analysis was performed with Mann-Whitney test for unpaired data. A p value less than 0.05 was considered significant.

[1] = test system: human peritoneal mesothelial cells; conditions: in vitro, culture medium supplemented with NAG, within six hours (ref. 12); cited from earlier work
[2] = intraperitoneal infusion of radiolabeled NAG (ref. 19); cited from earlier work

Question: What does the source list for `CC(=O)N[C@H]1C(O)O[C@H](CO)[C@@H](O)[C@@H]1O` (stereo partly shown) [NAG, N-acetylglucosamine]?
Answer: dialysate cell count (intraperitoneal inflammation) (rats; rat, in vivo, ip): 945±251 cells/μl; dialysate volume compared with glucose-based solution (rats; rats, 1 and 3 hrs exchange): higher; sodium sieving (D/D0) (rats; rats, 1 hour exchange, mean±SD): 0.955±0.034; increase of blood insulin level after 3 hours dialysis (rats; rats, 3 hours dialysis, mean±SD): 4.5 ± 4.7 pmol/L; end dialysate volume (rats; rats, 6 hour dwell, osmotic solute 220 mmol/l, 20 ml infused, mean±SD): 34.5 ± 1.7 mL; peritoneal permeability to total protein, dialysate/serum ratio×1000 (D/S×1000) (rats; rats, 6 hrs dwell, osmotic solute 220 mmol/l, mean±SD): 9.7±2.5; increase of blood glucose level (rats; rats, after 1 hour dwell of NAG dialysis fluid): 39%; increase in blood insulin level, times weaker than with dialysis fluid containing glucose (rats; rats, after 3 hours dialysis): about 12 times; increase of blood glucose level (rats; rats, after 3 hours dwell of NAG dialysis fluid): 54%; increase of blood glucose level (rats; rats, after 6 hours dwell of NAG dialysis fluid): 116%; hyaluronan concentration in the dialysate (rats; rats, dialysate after 6 hrs dwell, mean±SD): 60.3 ± 7.8 ng/mL; blood glucose concentration, highest observed during dialysis (rats; rats, osmotic solute 220 mmol/l, dwell 1, 3 or 6 hours, mean±SD): 91 ± 9 mg/dL; increase of blood insulin level (maximal) during dialysis (rats; rats, osmotic solute 220 mmol/l, mean±SD): 5.0 ± 5.4 pmol/L; synthesis of hyaluronan [1]: increase within six hours synthesis of hyaluronan; appearance of the tracer in the exhaled air [2]: about 25%; appearance of the tracer in urine [2]: about 20%

Source: patent US20040152666A1, “Methods of reducing complications associated with peritoneal dialysis in patients with diabetes obesity and/or hyperlipidemia” (priority 2002, published 2004)
